These results are taken from ChEMBL document CHEMBL1136200, “Potent and selective inhibitors of platelet-derived growth factor receptor phosphorylation. Part 4: structure-activity relationships for substituents on the quinazoline moiety of 4-[4-(N-substituted(thio)carbamoyl)-1-piperazinyl]-6,7-dimethoxyquinazoline derivatives” (Bioorg Med Chem Lett, 2003).

Structures are written as SMILES.

Platelet-derived growth factor receptor beta, sequence (P09619 whole entry): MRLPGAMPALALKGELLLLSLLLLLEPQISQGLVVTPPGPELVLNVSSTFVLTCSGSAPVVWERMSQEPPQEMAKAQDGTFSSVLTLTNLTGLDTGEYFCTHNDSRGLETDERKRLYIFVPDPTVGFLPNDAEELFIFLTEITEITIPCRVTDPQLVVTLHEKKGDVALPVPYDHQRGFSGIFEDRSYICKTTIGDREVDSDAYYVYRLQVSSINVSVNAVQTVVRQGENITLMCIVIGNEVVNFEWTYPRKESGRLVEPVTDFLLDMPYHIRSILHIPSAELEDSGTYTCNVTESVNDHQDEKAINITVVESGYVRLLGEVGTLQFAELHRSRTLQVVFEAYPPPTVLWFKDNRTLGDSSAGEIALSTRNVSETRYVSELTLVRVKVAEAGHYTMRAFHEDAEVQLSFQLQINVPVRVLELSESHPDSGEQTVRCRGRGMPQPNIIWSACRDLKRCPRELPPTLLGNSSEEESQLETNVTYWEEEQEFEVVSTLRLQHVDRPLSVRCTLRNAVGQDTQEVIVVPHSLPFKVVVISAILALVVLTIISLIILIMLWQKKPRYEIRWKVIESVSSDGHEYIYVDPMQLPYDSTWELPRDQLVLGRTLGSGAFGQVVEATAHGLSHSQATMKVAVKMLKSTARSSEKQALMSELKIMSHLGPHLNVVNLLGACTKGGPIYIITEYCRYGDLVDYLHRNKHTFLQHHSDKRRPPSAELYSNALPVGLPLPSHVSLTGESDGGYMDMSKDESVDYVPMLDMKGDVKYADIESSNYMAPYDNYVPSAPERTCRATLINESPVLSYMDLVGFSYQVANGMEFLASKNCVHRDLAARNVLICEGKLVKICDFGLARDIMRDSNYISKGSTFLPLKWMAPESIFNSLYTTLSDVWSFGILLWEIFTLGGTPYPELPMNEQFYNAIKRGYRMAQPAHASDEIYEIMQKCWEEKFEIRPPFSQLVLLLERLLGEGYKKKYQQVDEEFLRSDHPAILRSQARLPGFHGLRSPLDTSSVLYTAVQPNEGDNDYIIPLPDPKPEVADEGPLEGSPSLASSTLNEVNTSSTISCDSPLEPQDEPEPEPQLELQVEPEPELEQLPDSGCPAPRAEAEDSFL

This assay concerns the target Platelet-derived growth factor receptor beta (Homo sapiens, UniProt P09619). As to the kind of experiment: Inhibitory concentration against platelet-derived growth factor receptor beta phosphorylation in CHO cells. Type of assay: functional, cell-based, Cricetulus griseus.
On to `O=[N+]([O-])c1cc2c(N3CCN(C(=S)NCc4ccccc4)CC3)ncnc2cc1Cl`, for which the IC50 is greater than 30000 nM. With `O=C(Nc1ccc(Oc2ccccc2)cc1)N1CCN(c2ncnc3ccc(Br)cc23)CC1` the figure was 1380 nM; with `O=C(Nc1ccc(Oc2ccccc2)cc1)N1CCN(c2ncnc3cc(Cl)c([N+](=O)[O-])cc23)CC1`, 1320 nM.

As to `O=C(Nc1ccc(Oc2ccccc2)cc1)N1CCN(c2ncnc3ccc(F)cc23)CC1`, the IC50 turned out to be 350 nM. As for `CC(C)Oc1ccc2c(N3CCN(C(=O)Nc4ccc(Oc5ccccc5)cc4)CC3)ncnc2c1`, the IC50 was 1120 nM. Turning to `O=C(Nc1ccc(Oc2ccccc2)cc1)N1CCN(c2ncnc3cc([N+](=O)[O-])ccc23)CC1`, the IC50 was 2880 nM.

For `Cc1ccc2ncnc(N3CCN(C(=O)Nc4ccc(Oc5ccccc5)cc4)CC3)c2c1`, 540 nM corresponded to half-maximal inhibition (IC50). With `S=C(NCc1ccccc1)N1CCN(c2ncnc3cc(Cl)ccc23)CC1` the figure was 5160 nM; with `Cc1ccc2c(N3CCN(C(=O)Nc4ccc(Oc5ccccc5)cc4)CC3)ncnc2c1`, greater than 100 nM. `O=C(O)c1ccc2c(N3CCN(C(=O)Nc4ccc(Oc5ccccc5)cc4)CC3)ncnc2c1`: the IC50 is greater than 30000 nM.

`O=C(Nc1ccc(Oc2ccccc2)cc1)N1CCN(c2ncnc3ccc(I)cc23)CC1` had an IC50 of 5170 nM. For the compound `O=C(Nc1ccc(Oc2ccccc2)cc1)N1CCN(c2ncnc3cc(F)c(F)cc23)CC1`, the IC50 came out at 970 nM. Next, `CC(=O)Nc1cc2c(N3CCN(/C(S)=N\Cc4ccccc4)CC3)ncnc2cc1Cl`: greater than 1000 nM; `O=C(Nc1ccc(Oc2ccccc2)cc1)N1CCN(c2ncnc3ccc([N+](=O)[O-])cc23)CC1`: 29700 nM.

In turn, `Nc1cc2ncnc(N3CCN(C(=O)Nc4ccc(Oc5ccccc5)cc4)CC3)c2cc1[N+](=O)[O-]` returned an IC50 of 1160 nM. On to `COC(=O)c1ccc2c(N3CCN(C(=O)Nc4ccc(Oc5ccccc5)cc4)CC3)ncnc2c1`, for which the half-maximal inhibitory concentration (IC50) is greater than 750 nM. Regarding `COc1cccc2c(N3CCN(C(=O)Nc4ccc(Oc5ccccc5)cc4)CC3)ncnc12`, the IC50 is 10700 nM. The compound `Nc1cc2c(N3CCN(C(=S)NCc4ccccc4)CC3)ncnc2cc1Cl` had an IC50 of 160 nM. With `Cc1cccc2ncnc(N3CCN(C(=O)Nc4ccc(Oc5ccccc5)cc4)CC3)c12`, 6250 nM corresponded to half-maximal inhibition (IC50).

Broadly, the IC50 is the point on the concentration scale where inhibition reaches its midpoint. A low value points to greater potency in that assay.
